What was measured:
[1] = test system: OVCAR 3 Cancer cells; test: Nanoformulated quercetin in mice with implanted tumor; settings: mouse, in vivo
Description: Animals—Immunodeficient, female athymic mice aged 5-6 weeks and weighing between 18 and 20 g were purchased from Taconic Biosciences (Albany, NY). All animal studies were conducted at the animal facility of the Veteran Affairs Medical Center, Albany, NY in accordance with and approved by institutional guidelines for humane animal treatment and according to the current guidelines. Mice were maintained under specific pathogen-free conditions and housed under controlled conditions of temperature (20-24° C.) and humidity (60-70%) and 12 h light/dark cycle with ad libitum access to water and food. Mice were allowed to acclimatize for 5 d prior to the start of study.
Treatment—OVCAR 3 Cancer cells (1×10^6) were implanted subcutaneously in right flank of each animal. In the first set of experiments, control, free Quercetin (3 mg/kg), NPS-quercetin(3 mg/kg), and FA-NPs-quercetin (3 mg/kg) were injected subcutaneously to the mice everyday (for 14 days). The control was PBS, after humane sacrifice of animals at 14 days, tumors were harvested and amount of QC was measured.

[2] = cited from earlier work
[3] = test system: glioma cells; settings: cited from earlier work

O=c1c(O)c(-c2ccc(O)c(O)c2)oc2cc(O)cc(O)c12 [Free QC, quercetin]
adverse toxic effect on the health of tumor bearing mice [1]: does not have any adverse toxic effect

O=c1c(O)c(-c2ccc(O)c(O)c2)oc2cc(O)cc(O)c12 [Quercetin, quercetin]
water solubility [2]: not water soluble
angiogenesis [3]: suppression of angiogenesis
